Experiments:
hα2B receptor = target: T1, hα2B receptor (Homo sapiens, UniProt P18089); assay: Radioligand binding experiment for α2B-adrenergic receptor ([3H]-raulwolscine); conditions: membranes of CHO cells transfected with human α2B receptor; [3H]raulwolscine 1 nM
T1 construct: expressed in transfected cells
T1 sequence (P18089 1-450): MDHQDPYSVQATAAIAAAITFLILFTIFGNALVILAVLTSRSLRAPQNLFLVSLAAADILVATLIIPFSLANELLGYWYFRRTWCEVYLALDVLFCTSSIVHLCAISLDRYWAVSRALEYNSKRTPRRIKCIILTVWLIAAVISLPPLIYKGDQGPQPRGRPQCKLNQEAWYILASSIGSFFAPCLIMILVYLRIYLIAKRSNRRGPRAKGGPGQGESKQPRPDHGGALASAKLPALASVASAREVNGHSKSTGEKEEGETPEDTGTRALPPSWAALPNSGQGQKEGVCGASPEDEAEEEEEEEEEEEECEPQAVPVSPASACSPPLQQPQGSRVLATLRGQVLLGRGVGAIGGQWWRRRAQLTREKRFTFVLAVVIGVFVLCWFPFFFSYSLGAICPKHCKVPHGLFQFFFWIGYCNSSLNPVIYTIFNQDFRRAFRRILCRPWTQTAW
Experimental: (§1) The interaction of the compounds of Formula (I) with hα2-receptors and h5-HT-transporters was assessed in in vitro radioligand binding experiments. In general, a low concentration of a radioligand with a high binding affinity for a particular receptor or transporter is incubated with a sample of a tissue preparation enriched in a particular receptor or transporter or with a preparation of cells expressing cloned human receptors in a buffered medium. During the incubation, the radioligand binds to the receptor or transporter. When equilibrium of binding is reached, the receptor bound radioactivity is separated from the non-bound radioactivity, and the receptor- or transporter-bound activity is counted. The interaction of the test compounds with the receptor is assessed in competition binding experiments. Various concentrations of the test compound are added to the incubation mixture containing the receptor- or transporter preparation and the radioligand. The test compound in proportion to its binding affinity and its concentration inhibits binding of the radioligand. The radioligand used for hα2A, hα2B and hα2C receptor binding was [^3H]-raulwolscine and for the h5-HT transporter was [^3H]paroxetine.
(§2) CHO cells, stabile transfected with human adrenergic-α2A-, -α2B or α2C receptor cDNA, were cultured in Dulbecco's Modified Eagle's Medium (DMEM)/Nutrient mixture Ham's F12 (ratio 1:1) (Gibco, Gent-Belgium) supplemented with 10% heat inactivated fetal calf serum (Life Technologies, Merelbeke-Belgium) and antibiotics (100 IU/ml penicillin G, 100 μg/ml streptomycin sulphate, 110 μg/ml pyruvic acid and 100 μg/ml L-glutamine). One day before collection, cells were induced with 5 mM sodiumbutyrate. Upon 80-90% of confluence, cells were scraped in phosphate buffered saline without Ca^2+ and Mg^2+ and collected by centrifugation at 1500×g for 10 min. The cells were homogenised in Tris-HCl 50 mM using an Ultraturrax homogenizer and centrifuged for 10 min at 23,500×g. The pellet was washed once by resuspension and rehomogenization and the final pellet was resuspended in Tris-HCl, divided in 1 ml aliquots and stored at −70° C.
(§3) Membranes were thawed and re-homogenized in incubation buffer (glycylglycine 25 mM, pH 8.0). In a total volume of 500 μl, 2-10 μg protein was incubated with [^3H]raulwolscine (NET-722) (New England Nuclear, USA) (1 nM final concentration) with or without competitor for 60 min at 25° C. followed by rapid filtration over GF/B filter using a Filtermate 196 harvester (Packard, Meriden, Conn.). Filters were rinsed extensively with ice-cold rinsing buffer (Tris-HCl 50 mM pH 7.4). Filter-bound radioactivity was determined by scintillation counting in a Topcount (Packard, Meriden, Conn.) and results were expressed as counts per minute (cpm). Non-specific binding was determined in the presence of 1 μM oxymetazoline for hα2A- and hα2B-receptors and 1 μM spiroxatrine for hα2C receptors.
(§4) Data from assays in the presence of compound were calculated as a percentage of total binding measured in the absence of test compound. Inhibition curves, plotting percent of total binding versus the log value of the concentration of the test compound, were automatically generated, and sigmoidal inhibition curves were fitted using non-linear regression. The pIC50 values of test compounds were derived from individual curves. All compounds according to Formula (I) produced an inhibition at least at the hα2A site (but often also at the hα2B and hα2C sites) and simultaneously at the 5-HT transporter site of more than 50% (PIC50) at a test concentration ranging between 10^−6 M and 10^−9 M in a concentration-dependent manner.

hα2A receptor = target: T2, hα2A receptor (Homo sapiens, UniProt P08913); assay: Radioligand binding experiment for α2A-adrenergic receptor ([3H]-raulwolscine); conditions: membranes of CHO cells transfected with human α2A receptor; [3H]raulwolscine 1 nM
T2 construct: expressed in transfected cells
T2 sequence (P08913 1-465): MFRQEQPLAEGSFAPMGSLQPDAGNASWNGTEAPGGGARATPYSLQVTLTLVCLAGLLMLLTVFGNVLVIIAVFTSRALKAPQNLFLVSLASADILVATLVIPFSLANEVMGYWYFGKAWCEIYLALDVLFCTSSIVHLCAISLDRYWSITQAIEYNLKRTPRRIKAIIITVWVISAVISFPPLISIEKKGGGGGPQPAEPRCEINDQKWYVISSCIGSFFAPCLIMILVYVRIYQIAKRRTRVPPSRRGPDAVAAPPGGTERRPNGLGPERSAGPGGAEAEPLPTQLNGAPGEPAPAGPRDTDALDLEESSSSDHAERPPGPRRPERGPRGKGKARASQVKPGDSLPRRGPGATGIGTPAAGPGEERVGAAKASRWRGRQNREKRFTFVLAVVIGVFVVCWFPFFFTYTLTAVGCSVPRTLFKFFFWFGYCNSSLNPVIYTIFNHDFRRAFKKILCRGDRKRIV
Experimental: as §1, §2, §3, §4

h5-HT transporter = target: T3, h5-HT transporter (Homo sapiens, UniProt P31645); assay: Radioligand binding experiment for 5-HT transporter ([3H]paroxetine); conditions: human platelet membranes; [3H]paroxetine 0.5 nM; read-out: 5-HTT (converted)
T3 construct: Human platelet membranes (Oceanix Biosciences Corporation, Hanover, Md., USA) were thawed; tissue Oceanix Biosciences Corporation; host or cells: human platelet membranes
T3 sequence (P31645 whole entry): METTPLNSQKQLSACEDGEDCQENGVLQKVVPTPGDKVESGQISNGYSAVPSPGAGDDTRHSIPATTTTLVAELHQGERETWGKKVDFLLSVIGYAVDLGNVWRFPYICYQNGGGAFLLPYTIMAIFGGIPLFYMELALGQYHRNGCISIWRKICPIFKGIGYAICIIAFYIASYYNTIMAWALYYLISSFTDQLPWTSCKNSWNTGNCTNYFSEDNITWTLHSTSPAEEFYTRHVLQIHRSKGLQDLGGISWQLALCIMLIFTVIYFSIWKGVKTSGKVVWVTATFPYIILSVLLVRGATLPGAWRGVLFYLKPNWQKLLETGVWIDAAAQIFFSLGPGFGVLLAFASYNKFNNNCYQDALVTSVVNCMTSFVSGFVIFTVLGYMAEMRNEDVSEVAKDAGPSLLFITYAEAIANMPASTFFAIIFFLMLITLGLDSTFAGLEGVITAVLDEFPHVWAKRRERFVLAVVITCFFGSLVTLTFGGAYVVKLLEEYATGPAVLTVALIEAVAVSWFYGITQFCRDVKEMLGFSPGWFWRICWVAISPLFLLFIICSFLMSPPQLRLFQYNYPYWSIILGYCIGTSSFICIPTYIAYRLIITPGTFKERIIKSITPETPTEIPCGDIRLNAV
Experimental: as §1
Human platelet membranes (Oceanix Biosciences Corporation, Hanover, Md., USA) were thawed, diluted in buffer (Tris-HCl 50 mM, 120 mM NaCl and 5 mM KCl) and quickly (max 3 s) homogenised with an Ultraturrax homogenizer. In a total volume of 250 μL, 50-100 μg protein was incubated with [^3H]paroxetine (NET-869) (New England Nuclear, USA) (0.5 nM final concentration) with or without competitor for 60 min at 25° C. Incubation was stopped by rapid filtration of the incubation mixture over GF/B filters, pre-wetted with 0.1% polyethyleneamine, using a Filtermate 196 harvester (Packard, Meriden, Conn.). Filters were rinsed extensively with ice-cold buffer and radioactivity on the filters was counted in a Topcount liquid scintillation counter (Packard, Meriden, Conn.). Data were expressed as cpm. Imipramine (at 1 μM final concentration) was used to determine the non-specific binding.
as §4

hα2C receptor = target: T4, hα2C receptor (Homo sapiens, UniProt P18825); assay: Radioligand binding experiment for α2C-adrenergic receptor ([3H]-raulwolscine); conditions: membranes of CHO cells transfected with human α2C receptor; [3H]raulwolscine 1 nM
T4 construct: expressed in transfected cells
T4 sequence (P18825 1-462): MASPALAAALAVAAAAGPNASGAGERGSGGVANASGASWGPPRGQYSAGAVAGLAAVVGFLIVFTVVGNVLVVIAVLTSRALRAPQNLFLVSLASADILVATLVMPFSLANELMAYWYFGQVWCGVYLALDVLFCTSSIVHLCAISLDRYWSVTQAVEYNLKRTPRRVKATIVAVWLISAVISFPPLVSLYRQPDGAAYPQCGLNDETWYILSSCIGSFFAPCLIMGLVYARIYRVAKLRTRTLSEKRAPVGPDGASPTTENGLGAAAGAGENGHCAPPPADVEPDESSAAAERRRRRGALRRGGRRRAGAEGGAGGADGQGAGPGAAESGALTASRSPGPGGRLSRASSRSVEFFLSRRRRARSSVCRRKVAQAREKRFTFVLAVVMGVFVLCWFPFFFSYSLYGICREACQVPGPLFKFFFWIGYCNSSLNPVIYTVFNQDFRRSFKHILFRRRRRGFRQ
Experimental: as §1, §2, §3, §4

Structure (SMILES)	IC50 (hα2B receptor)	IC50 (hα2A receptor)	IC50 (h5-HT transporter)	IC50 (hα2C receptor)
CC(=Cc1ccccc1)CN1CCN(CC2ON=C3c4cccc(NCCN5CCCC5)c4OCC32)CC1 (centres unmarked) [Compound 16]	3.98 nM	39.8 nM	25.1 nM	7.94 nM
COc1cc2c(c(I)c1OC)OCC1C2=NOC1CN1CCN(CC(C)=Cc2ccc(F)cc2)CC1 (centres unmarked) [Compound 18]	31.6 nM	25.1 nM	50.1 nM	25.1 nM
COc1cc2c(c(C#N)c1OC)OCC1C2=NOC1CN1CCN(CC(C)=Cc2ccc(F)cc2)CC1 (centres unmarked) [Compound 19]	20 nM	10 nM	126 nM	15.8 nM
COc1cc2c(c(N3CCC3=O)c1OC)OCC1C2=NOC1CN1CCN(CC(C)=Cc2ccc(F)cc2)CC1 (centres unmarked) [Compound 20]	25.1 nM	79.4 nM	126 nM	31.6 nM
CC(=Cc1ccccc1)CN1CCN(CC2ON=C3c4cccc(NCc5ccccc5)c4OCC32)CC1 (centres unmarked) [Compound 23]	50.1 nM	63.1 nM	126 nM	20 nM

Next, values leading:

IC50 (hα2B receptor)	IC50 (hα2A receptor)	IC50 (h5-HT transporter)	IC50 (hα2C receptor)	Structure (SMILES)
3.16 nM	2.51 nM	1000 nM	1.26 nM	COCC(=O)OCCOc1cccc2c1C1=NOC(CN3CCN(CC(C)=Cc4ccccc4)CC3)C1CO2 (centres unmarked) [Compound 14]
6.31 nM	63.1 nM	10 nM	15.8 nM	CCNC(=O)Nc1cccc2c1OCC1C2=NOC1CN1CCN(CC(C)=Cc2ccccc2)CC1 (centres unmarked) [Compound 17]
2 nM	31.6 nM	25.1 nM	3.98 nM	CC(=O)Nc1cccc2c1OCC1C2=NOC1CN1CCN(CC(C)=Cc2ccccc2)CC1 (centres unmarked) [Compound 22]

From US7462717B2, “C6-and C9-substituted chromeno[4,3-c]isoxazoline derivatives and their use as anti-depressants” (Janssen Pharmaceutica N.V., priority 2002, dated 2008)
